Test: Part 2 (MAD): plasma pharmacokinetics after BID oral KAR5585 for 14 days (incl. accumulation ratios and dose proportionality)
[1] = 200 mg/dose Fed Cohort 3, Day 1 PM, Geo. Mean
[2] = 200 mg/dose Fed Cohort 3, Day 1 PM, Mean
[3] = 200 mg/dose Fed Cohort 3, Day 7 AM, Geo. Mean
[4] = 200 mg/dose Fed Cohort 3, Day 7 AM, Mean
[5] = 200 mg/dose Fed Cohort 3, Day 7 PM, Geo. Mean
[6] = 200 mg/dose Fed Cohort 3, Day 7 PM, Mean
[7] = 200 mg/dose Fed Cohort 3, Day 14, Geo. Mean
[8] = 200 mg/dose Fed Cohort 3, Day 14, Mean
[9] = 400 mg/dose Fasted Cohort 4, Day 1 AM, Geo. Mean
[10] = 400 mg/dose Fasted Cohort 4, Day 1 AM, Mean
[11] = 400 mg/dose Fasted Cohort 4, Day 1 PM, Geo. Mean
[12] = 400 mg/dose Fasted Cohort 4, Day 1 PM, Mean
[13] = 400 mg/dose Fasted Cohort 4, Day 7 AM, Geo. Mean
[14] = 400 mg/dose Fasted Cohort 4, Day 7 AM, Mean
[15] = 400 mg/dose Fasted Cohort 4, Day 7 PM, Geo. Mean
[16] = 400 mg/dose Fasted Cohort 4, Day 7 PM, Mean
[17] = 400 mg/dose Fasted Cohort 4, Day 14, Geo. Mean
[18] = 400 mg/dose Fasted Cohort 4, Day 14, Mean
[19] = power model, PK Day 1 (AM), 100 to 400 mg KAR5585 repeat oral doses, fed
[20] = power model, PK Day 7 (AM), 100 to 400 mg KAR5585 repeat oral doses, fed
[21] = power model, PK Day 14 (AM), 100 to 400 mg KAR5585 repeat oral doses, fed

Text: Food effect was to be evaluated in Part 1, Period 2.
Pharmacokinetic data were to be summarized descriptively.

CCOC(=O)[C@@H]1CC2(CCN(c3cc(O[C@H](c4ccc(Cl)cc4-c4ccccc4)C(F)(F)F)nc(N)n3)CC2)CN1 [KAR5585, (S)-ethyl 8-(2-amino-6-((R)-1-(5-chloro-[1,1′-biphenyl]-2-yl)-2,2,2-trifluoroethoxy)pyrimidin-4-yl)-2,8-diazaspiro[4.5]decane-3-carboxylate]
C12 [1]: 9.57 ng/mL
CL/F [1]: 493 L/h
Cmax [1]: 85.4 ng/mL
Cmax/D [1]: 0.427 (ng/mL)/mg
t1/2 [1]: 4.24 h
AUC0-12 [2]: 344 ng·h/mL
AUC0-24 [2]: 601 ng·h/mL
AUC0-24/D [2]: 1.5 (hr*ng/mL)/mg
AUC0-∞ [2]: 417 ng·h/mL
C12 [2]: 9.92 ng/mL
CL/F [2]: 507 L/h
Cmax [2]: 90.9 ng/mL
Cmax/D [2]: 0.455 (ng/mL)/mg
t1/2 [2]: 4.34 h
AUC0-12 [3]: 217 ng·h/mL
AUC0-∞ [3]: 256 ng·h/mL
C12 [3]: 7.36 ng/mL
CL/F [3]: 924 L/h
Cmax [3]: 45.6 ng/mL
Cmax/D [3]: 0.228 (ng/mL)/mg
t1/2 [3]: 4.21 h
AUC0-12 [4]: 230 ng·h/mL
C12 [4]: 7.71 ng/mL
CL/F [4]: 978 L/h
Cmax [4]: 48.8 ng/mL
Cmax/D [4]: 0.244 (ng/mL)/mg
t1/2 [4]: 4.30 h
Tmax (200 mg/dose Fed Cohort 3, Day 7 AM, Median): 3.0 h
AUC0-12 [5]: 201 ng·h/mL
AUC0-24 [5]: 414 ng·h/mL
AUC0-24/D [5]: 1.03 (hr*ng/mL)/mg
AUC0-∞ [5]: 289 ng·h/mL
C12 [5]: 11.3 ng/mL
CL/F [5]: 869 L/h
Cmax [5]: 39.1 ng/mL
Cmax/D [5]: 0.195 (ng/mL)/mg
t1/2 [5]: 5.58 h
AUC0-12 [6]: 207 ng·h/mL
AUC0-24 [6]: 431 ng·h/mL
AUC0-24/D [6]: 1.08 (hr*ng/mL)/mg
AUC0-∞ [6]: 290 ng·h/mL
C12 [6]: 12.2 ng/mL
CL/F [6]: 890 L/h
Cmax/D [6]: 0.213 (ng/mL)/mg
t1/2 [6]: 6.20 h
AUC0-24 [7]: 199 ng·h/mL
AUC0-24/D [7]: 0.993 (hr*ng/mL)/mg
C24 [7]: BLQ
CL/F [7]: 1130 L/h
Cmax/D [7]: 0.217 (ng/mL)/mg
AUC0-12 [8]: 188 ng·h/mL
AUC0-24 [8]: 212 ng·h/mL
AUC0-24/D [8]: 1.06 (hr*ng/mL)/mg
AUC0-∞ [8]: 216 ng·h/mL
C24 [8]: BLQ
CL/F [8]: 1200 L/h
Cmax [8]: 48.8 ng/mL
Cmax/D [8]: 0.244 (ng/mL)/mg
Mean CL/F, Day 1 (400 mg KAR5585 BID, fed): 1730 L/h
Mean steady-state CL/F, Day 14 (400 mg KAR5585 BID, fed): 1140 L/h
AUC0-12 [9]: 253 ng·h/mL
AUC0-∞ [9]: 272 ng·h/mL
C12 [9]: 7.44 ng/mL
CL/F [9]: 1470 L/h
Cmax [9]: 74.0 ng/mL
Cmax/D [9]: 0.185 (ng/mL)/mg
t1/2 [9]: 3.00 h
AUC0-12 [10]: 281 ng·h/mL
C12 [10]: 7.49 ng/mL
CL/F [10]: 1730 L/h
Cmax [10]: 81.8 ng/mL
Cmax/D [10]: 0.205 (ng/mL)/mg
AUC0-12 [11]: 501 ng·h/mL
AUC0-24/D [11]: 0.950 (hr*ng/mL)/mg
AUC0-∞ [11]: 633 ng·h/mL
C12 [11]: 16.6 ng/mL
CL/F [11]: 632 L/h
Cmax/D [11]: 0.276 (ng/mL)/mg
t1/2 [11]: 4.18 h
AUC0-12 [12]: 528 ng·h/mL
AUC0-24/D [12]: 1.01 (hr*ng/mL)/mg
AUC0-∞ [12]: 657 ng·h/mL
C12 [12]: 17.1 ng/mL
CL/F [12]: 662 L/h
Cmax [12]: 124 ng/mL
Cmax/D [12]: 0.310 (ng/mL)/mg
t1/2 [12]: 4.33 h
AUC0-12 [13]: 473 ng·h/mL
AUC0-∞ [13]: 577 ng·h/mL
C12 [13]: 15.1 ng/mL
CL/F [13]: 846 L/h
Cmax [13]: 93.3 ng/mL
Cmax/D [13]: 0.228 (ng/mL)/mg
t1/2 [13]: 4.65 h
AUC0-12 [14]: 483 ng·h/mL
AUC0-∞ [14]: 588 ng·h/mL
C12 [14]: 15.5 ng/mL
CL/F [14]: 865 L/h
Cmax [14]: 95.9 ng/mL
Cmax/D [14]: 0.240 (ng/mL)/mg
t1/2 [14]: 4.90 h
AUC0-12 [15]: 394 ng·h/mL
AUC0-24/D [15]: 1.09 (hr*ng/mL)/mg
AUC0-∞ [15]: 534 ng·h/mL
C12 [15]: 20.1 ng/mL
CL/F [15]: 954 L/h
Cmax [15]: 63.4 ng/mL
Cmax/D [15]: 0.158 (ng/mL)/mg
t1/2 [15]: 4.92 h
AUC0-12 [16]: 404 ng·h/mL
AUC0-24 [16]: 887 ng·h/mL
AUC0-24/D [16]: 1.11 (hr*ng/mL)/mg
AUC0-∞ [16]: 538 ng·h/mL
C12 [16]: 20.8 ng/mL
CL/F [16]: 969 L/h
Cmax/D [16]: 0.172 (ng/mL)/mg
t1/2 [16]: 4.93 h
AUC0-12 [17]: 359 ng·h/mL
AUC0-24 [17]: 433 ng·h/mL
AUC0-24/D [17]: 1.08 (hr*ng/mL)/mg
AUC0-∞ [17]: 465 ng·h/mL
C12 [17]: 11.0 ng/mL
CL/F [17]: 1110 L/h
Cmax [17]: 85.3 ng/mL
Cmax/D [17]: 0.213 (ng/mL)/mg
t1/2 [17]: 6.08 h
AUC0-12 [18]: 366 ng·h/mL
AUC0-24 [18]: 444 ng·h/mL
AUC0-24/D [18]: 1.11 (hr*ng/mL)/mg
CL/F [18]: 1140 L/h
Cmax/D [18]: 0.222 (ng/mL)/mg
Tmax (400 mg/dose Fasted Cohort 4, Day 14, Median): 1.5 h
steady-state plasma levels achieved by (BID oral KAR5585 for 14 days): ≤ 7 days
Dose proportionality analysis, AUC0-12: Intercept estimate [19]: 0.969
Dose proportionality analysis, AUC0-inf: Intercept estimate [19]: 0.817
Dose proportionality analysis, Cmax: Intercept estimate [19]: 0.198
Dose proportionality analysis, AUC0-12: Intercept estimate [20]: 1.51
Dose proportionality analysis, Cmax: Intercept estimate [20]: 0.688
Dose proportionality analysis, AUC0-12: Intercept estimate [21]: 2.37
Dose proportionality analysis, Cmax: Intercept estimate [21]: 0.705

— patent publication US20240041877A1, “DOSAGE REGIME AND METHOD FOR TREATING PULMONARY ARTERIAL HYPERTENSION” (Altavant Sciences GmbH, priority 2019, published 2024)
